Assay results reported in paper PMC5697189 (Journal of Veterinary Internal Medicine, 2017).
Like-named read-outs stand apart in the source and are kept apart here.

Legend:
[1] = tested on: recombinant canine GSTT5 (reference); test: spectrophotometric glutathione conjugation assay, Michaelis-Menten fit; format: biochemical, Canis lupus familiaris; conditions: co-substrate glutathione (5 mM); pH and temperature not stated
[2] = tested on: recombinant canine GSTT5 (reference); conditions: co-substrate glutathione (5 mM); pH and temperature not stated

O=[N+]([O-])c1ccc(Cl)c(Cl)c1 [1,2-dichloro-4-nitrobenzene, 1,2‐dichloro‐4‐nitrobenzene]
Km [1]: 168 ± 27 µM | Km [2]: 164 ± 22 µM
